Source: patent publication US6500853B1, “Inhibitors of phospholipase enzymes” (Genetics Institute, LLC, priority 1998, dated 2002)
Values joined by “and” are separate entries in the source; they are usually repeats but may differ in a detail not shown here. Identical values can stand only once.

What was measured:
cPLA2 = target: T1, cPLA2 (Homo sapiens, UniProt P47712); test: Coumarin Assay (cPLA2 inhibition); format: biochemical; conditions: for inhibition at 0.7 µM: CONCENTRATION 0.7 micromolar; for inhibition at 0.8 µM: CONCENTRATION 0.8 micromolar; for inhibition at 0.85 µM: CONCENTRATION 0.85 micromolar; for inhibition at 1 µM: CONCENTRATION 1 micromolar
T1 sequence (P47712 1-749): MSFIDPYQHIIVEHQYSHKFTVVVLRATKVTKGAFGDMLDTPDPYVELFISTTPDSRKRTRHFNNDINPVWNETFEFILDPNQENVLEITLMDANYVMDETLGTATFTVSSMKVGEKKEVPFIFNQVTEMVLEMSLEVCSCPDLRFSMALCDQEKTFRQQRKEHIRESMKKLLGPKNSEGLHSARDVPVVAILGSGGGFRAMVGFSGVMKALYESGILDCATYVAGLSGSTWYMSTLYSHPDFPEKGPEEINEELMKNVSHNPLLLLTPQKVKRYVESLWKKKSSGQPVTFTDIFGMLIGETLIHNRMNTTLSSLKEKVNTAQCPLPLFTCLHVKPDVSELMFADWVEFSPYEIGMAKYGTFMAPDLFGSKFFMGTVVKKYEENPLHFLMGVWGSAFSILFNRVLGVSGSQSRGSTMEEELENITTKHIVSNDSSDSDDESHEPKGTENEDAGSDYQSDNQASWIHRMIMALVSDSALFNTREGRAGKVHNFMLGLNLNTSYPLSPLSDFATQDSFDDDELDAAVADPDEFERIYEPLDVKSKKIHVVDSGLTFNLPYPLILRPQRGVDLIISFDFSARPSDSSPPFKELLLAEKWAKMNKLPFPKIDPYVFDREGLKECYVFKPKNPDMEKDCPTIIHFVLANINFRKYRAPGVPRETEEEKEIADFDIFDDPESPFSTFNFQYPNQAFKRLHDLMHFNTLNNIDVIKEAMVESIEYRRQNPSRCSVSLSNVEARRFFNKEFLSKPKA
How it was run: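 Percent inhibition at the stated concentration, from the rate of 460 nm emission rise (360 nm excitation) per minute. Reaction started by adding 4 μg enzyme to compound and 60 μM 7-hydroxycoumarinyl 6-heptenoate in Hepes buffer pH 7.5 with 1 mM EDTA.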

[1] = test system: Rat Carrageenan-Induced Footpad Edema; test: Rat Carrageenan-Induced Footpad Edema Test; format: in vivo, male Sprague Dawley rats; conditions: footpad volume 3 hours after carrageenan; for inhibition in vivo at 2 mg/kg / inhibition in vivo at 10 mg/kg / inhibition in vivo at 5 mg/kg: Rattus norvegicus, 3 h, read-out: PERCENT INHIBITION; for inhibition in vivo at 2 mg/kg / inhibition in vivo at 10 mg/kg: po; for inhibition in vivo at 5 mg/kg: iv
[2] = CONCENTRATION 2.5 micromolar, read-out: PERCENT INHIBITION @

COc1cc(C(=O)O)ccc1Cc1cn(C(c2ccccc2)c2ccccc2)c2cc3c(cc12)OCO3 [Example 16, 4-[(5-benzhydryl-5H-[1,3]dioxolo[4,5-f]indol-7-yl)methyl]-3-methoxybenzoic acid]
PERCENT INHIBITION @ (cPLA2; CONCENTRATION 0.125 micromolar): 61% and 71%
inhibition at 0.14 µM (cPLA2; CONCENTRATION 0.14 micromolar, read-out: PERCENT INHIBITION @): 50%
inhibition at 0.17 µM (cPLA2; CONCENTRATION 0.17 micromolar, read-out: PERCENT INHIBITION @): 50%
inhibition at 0.25 µM (cPLA2; CONCENTRATION 0.25 micromolar, read-out: PERCENT INHIBITION @): 69%
inhibition at 6.25 µM (cPLA2; CONCENTRATION 6.25 micromolar, read-out: PERCENT INHIBITION @): 98%
inhibition in vivo at 2 mg/kg ([1]; PO, 2 mg/Kg): 3.8%
inhibition in vivo at 10 mg/kg ([1]; PO, 10 mg/Kg): 15%

COc1cc(C(=O)O)ccc1Cc1cn(C(c2ccccc2)c2ccccc2)c2ccc(C#N)cc12 [Example 17, 4-[(1-benzhydryl-5-cyano-1H-indol-3-yl)methyl]-3-methoxybenzoic acid]
inhibition at 0.7 µM (cPLA2; read-out: PERCENT INHIBITION @): 50%
inhibition at 0.8 µM (cPLA2; read-out: PERCENT INHIBITION @): 50%
inhibition at 0.85 µM (cPLA2; read-out: PERCENT INHIBITION @): 50%
inhibition at 0.98 µM (cPLA2; CONCENTRATION 0.98 micromolar, read-out: PERCENT INHIBITION @): 50%
inhibition in vivo at 2 mg/kg ([1]; PO, 2 mg/Kg): 19.3%
inhibition in vivo at 10 mg/kg ([1]; PO, 10 mg/Kg): 34.5%

COc1cc(C(=O)NS(=O)(=O)c2ccccc2C)ccc1Cc1cn(C(C)C)c2ccc(NC(=O)OC3CCCC3)cc12 [Example 24, Cyclopentyl N-{1-isopropyl-3-[2-methoxy-4-({[(2-methylphenyl)sulfonyl]amino}carbonyl)benzyl]-1H-indol-5-yl}carbamate]
PERCENT INHIBITION @ (cPLA2; CONCENTRATION 100 micromolar): 50%
inhibition at 100 µM (cPLA2; CONCENTRATION 100 micromolar, read-out: PERCENT INHIBITION @): 42%
inhibition in vivo at 5 mg/kg ([1]; IV, 5 mg/Kg): 8.33%

COc1cc(C(=O)NS(=O)(=O)C(F)(F)F)ccc1Cc1cn(C(c2ccccc2)c2ccccc2)c2ccc(NC(=O)OC3CCCC3)cc12 [Example 26, Cyclopentyl N-{1-benzhydryl-3-[2-methoxy-4-({[(trifluoromethyl)sulfonyl]amino}carbonyl)benzyl]-1H-indol-5-yl}carbamate]
inhibition at 2.4 µM (cPLA2; CONCENTRATION 2.4 micromolar, read-out: PERCENT INHIBITION @): 50%
inhibition at 2.5 µM (cPLA2; [2]): 50%
inhibition in vivo at 5 mg/kg ([1]; IV, 5 mg/Kg): 25.3%

COc1cc(C(=O)NS(C)(=O)=O)ccc1Cc1cn(C(c2ccccc2)c2ccccc2)c2ccc(NC(=O)OC3CCCC3)cc12 [Example 27, cyclopentyl N-[1-benzhydryl-3-(2-methoxy-4-{[(methylsulfonyl)amino]carbonyl}benzyl)-1H-indol-5-yl]carbamate]
inhibition at 6 µM (cPLA2; CONCENTRATION 6 micromolar, read-out: PERCENT INHIBITION @): 50%
inhibition at 6.4 µM (cPLA2; CONCENTRATION 6.4 micromolar, read-out: PERCENT INHIBITION @): 50%
inhibition in vivo at 5 mg/kg ([1]; IV, 5 mg/Kg): 6.48%

COc1cc(C(=O)NS(=O)(=O)c2ccccc2Cl)ccc1Cc1cn(C(c2ccccc2)c2ccccc2)c2ccc(NC(=O)OC3CCCC3)cc12 [Example 28, cyclopentyl N-{1-benzhydryl-3-[4-({[(2-chlorophenyl)sulfonyl]amino}carbonyl)-2-methoxybenzyl]-1H-indol-5-yl}carbamate]
inhibition at 4.2 µM (cPLA2; CONCENTRATION 4.2 micromolar, read-out: PERCENT INHIBITION @): 50%
inhibition at 4.4 µM (cPLA2; CONCENTRATION 4.4 micromolar, read-out: PERCENT INHIBITION @): 50%
inhibition in vivo at 5 mg/kg ([1]; IV, 5 mg/Kg): 0.29%

COc1cc(C(=O)NS(=O)(=O)c2cccc3c(N(C)C)cccc23)ccc1Cc1cn(C(c2ccccc2)c2ccccc2)c2ccc(NC(=O)OC3CCCC3)cc12 [Example 30]
PERCENT INHIBITION @ (cPLA2; CONCENTRATION 8 micromolar): 50%
PERCENT INHIBITION @ (cPLA2; CONCENTRATION 20 micromolar): 46%
PERCENT INHIBITION @ (cPLA2; CONCENTRATION 21 micromolar): 50%
PERCENT INHIBITION @ (cPLA2; CONCENTRATION 24 micromolar): 50%
PERCENT INHIBITION ([1]; IV, 5 mg/Kg): 13.89%
PERCENT INHIBITION ([1]; PO, 2 mg/Kg): −0.11%
PERCENT INHIBITION ([1]; PO, 10 mg/Kg): 13.25%

COc1cc(C(=O)NS(=O)(=O)C(F)(F)F)ccc1Cc1cn(C(c2ccccc2)c2ccccc2)c2ccc([N+](=O)[O-])cc12 [Example 37, N-{4-[(1-benzhydryl-5-nitro-1H-indol-3-yl)methyl]-3-methoxybenzoyl}(trifluoro)methanesulfonamide]
inhibition at 0.4 µM (cPLA2; CONCENTRATION 0.4 micromolar, read-out: PERCENT INHIBITION @): 50%
inhibition at 0.5 µM (cPLA2; CONCENTRATION 0.5 micromolar, read-out: PERCENT INHIBITION @): 50%
inhibition at 0.55 µM (cPLA2; CONCENTRATION 0.55 micromolar, read-out: PERCENT INHIBITION @): 50%
inhibition at 0.65 µM (cPLA2; CONCENTRATION 0.65 micromolar, read-out: PERCENT INHIBITION @): 50%
inhibition in vivo at 2 mg/kg ([1]; PO, 2 mg/Kg): -7.94%
inhibition in vivo at 10 mg/kg ([1]; PO, 10 mg/Kg): 3.36%

COc1cc(C(=O)NS(=O)(=O)c2ccccc2C)ccc1Cc1cn(C(c2ccccc2)c2ccccc2)c2ccc(Br)cc12 [Example 38, N-{4-[(1-benzhydryl-5-bromo-1H-indol-3-yl)methyl]-3-methoxybenzoyl}-2-methylbenzenesulfonamide]
inhibition at 0.3 µM (cPLA2; CONCENTRATION 0.3 micromolar, read-out: PERCENT INHIBITION @): 50%
inhibition at 0.45 µM (cPLA2; CONCENTRATION 0.45 micromolar, read-out: PERCENT INHIBITION @): 50%
inhibition at 0.57 µM (cPLA2; CONCENTRATION 0.57 micromolar, read-out: PERCENT INHIBITION @): 50%
inhibition at 0.59 µM (cPLA2; CONCENTRATION 0.59 micromolar, read-out: PERCENT INHIBITION @): 50%
inhibition at 0.6 µM (cPLA2; CONCENTRATION 0.6 micromolar, read-out: PERCENT INHIBITION @): 50%
inhibition at 0.64 µM (cPLA2; CONCENTRATION 0.64 micromolar, read-out: PERCENT INHIBITION @): 50%
inhibition at 0.7 µM (cPLA2; read-out: PERCENT INHIBITION @): 50%
inhibition at 0.85 µM (cPLA2; read-out: PERCENT INHIBITION @): 50%
inhibition at 1 µM (cPLA2; read-out: PERCENT INHIBITION @): 50%
inhibition in vivo at 2 mg/kg ([1]; PO, 2 mg/Kg): 15.4%
inhibition in vivo at 10 mg/kg ([1]; PO, 10 mg/Kg): 26.3%

COc1cc(C(=O)NS(=O)(=O)C(F)(F)F)ccc1Cc1cn(C(c2ccccc2)c2ccccc2)c2ccc(Br)cc12 [Example 39, N-{4-[(1-benzhydryl-5-bromo-1H-indol-3-yl)methyl]-3-methoxybenzoyl}(trifluoro)methanesulfonamide]
inhibition at 0.39 µM (cPLA2; CONCENTRATION 0.39 micromolar, read-out: PERCENT INHIBITION @): 50%
inhibition at 0.7 µM (cPLA2; read-out: PERCENT INHIBITION @): 50%
inhibition at 0.73 µM (cPLA2; CONCENTRATION 0.73 micromolar, read-out: PERCENT INHIBITION @): 50%
inhibition at 0.75 µM (cPLA2; CONCENTRATION 0.75 micromolar, read-out: PERCENT INHIBITION @): 50%
inhibition at 0.8 µM (cPLA2; read-out: PERCENT INHIBITION @): 50%
inhibition at 0.9 µM (cPLA2; CONCENTRATION 0.9 micromolar, read-out: PERCENT INHIBITION @): 50%
inhibition at 1 µM (cPLA2; read-out: PERCENT INHIBITION @): 50%
inhibition at 1.2 µM (cPLA2; CONCENTRATION 1.2 micromolar, read-out: PERCENT INHIBITION @): 50%
inhibition at 1.3 µM (cPLA2; CONCENTRATION 1.3 micromolar, read-out: PERCENT INHIBITION @): 50%
inhibition at 1.6 µM (cPLA2; CONCENTRATION 1.6 micromolar, read-out: PERCENT INHIBITION @): 50%
inhibition in vivo at 2 mg/kg ([1]; PO, 2 mg/Kg): 1.98%
inhibition in vivo at 10 mg/kg ([1]; PO, 10 mg/Kg): -7.16%

COc1cc(C(=O)NS(=O)(=O)C(F)(F)F)ccc1Cc1cn(C(c2ccccc2)c2ccccc2)c2ccc(NC(=O)C3CCCC3)cc12 [Example 40, N-{1-benzhydryl-3-[2-methoxy-4-({[(trifluoromethyl)sulfonyl]amino}carbonyl)benzyl]-1H-indol-5-yl}cyclopentanecarboxamide]
PERCENT INHIBITION @ (cPLA2; CONCENTRATION 2.5 micromolar): 55%
inhibition at 2.5 µM (cPLA2; [2]): 50%
inhibition at 3 µM (cPLA2; CONCENTRATION 3 micromolar, read-out: PERCENT INHIBITION @): 50%
inhibition at 3.6 µM (cPLA2; CONCENTRATION 3.6 micromolar, read-out: PERCENT INHIBITION @): 50%
inhibition in vivo at 5 mg/kg ([1]; IV, 5 mg/Kg): 8.21%
